The text below walks through data of patent US4256753A, “4-(2-Pyridylamino)phenylacetic acid derivatives” (Dainippon Pharmaceutical Co., Ltd., priority 1978, dated 1981).

Read-outs that look alike come from different tables or passages of the source. A value given as a limit tells only on which side of the number the result lay.

The subject of series [1] is Carrageenin-induced hind paw edema. The series can be described thus: Carrageenin-induced hind paw edema in rats (CAR method). It is filed as in vivo. The note with it: Rattus norvegicus, po, read-out: Anti-inflammatory ED50, CAR. The protocol: (a) Carrageenin-induced hind paw edema in rats (CAR method)
The test was carried out according to the method described in Proc. Soc. Exp. Biol. Med., 111, 544 (1962).
(The carrageenan paw model is a standard test of acute inflammation.)

Series [2] deals with Acetic acid-induced vascular permeability. The series is described as follows: Acetic acid-induced vascular permeability in mice (CAP method). It is filed as in vivo. As to conditions: Mus musculus, po, read-out: Anti-inflammatory ED50, CAP. The protocol: (b) Acetic acid-induced vascular permeability in mice (CAP method)
The test was carried out according to the method described in Brit. J. Pharm. Chemother., 22, 246 (1964).

The subject of series [3] is Acetic acid-induced writhing. The series is described as follows: Acetic acid-induced writhing in rats (ACWR method). As to conditions: Rattus norvegicus, po, read-out: Analgesic ED50, ACWR. It is filed as in vivo. The protocol: (b) Acetic acid-induced writhing in rats (ACWR method)
The test was carried out according to the method described in Arzneim. Forsch., 25, 1505 (1975).
A general note: An intraperitoneal irritant provokes the stretching counted in writhing tests.

The test system of series [4] is Phenylquinone-induced writhing. The series is described as follows: Phenylquinone-induced writhing in mice (PQW method). As to conditions: Mus musculus, po, read-out: Analgesic ED50, PQW. It is filed as in vivo. The protocol:
(a) Phenylquinone-induced writhing in mice (PQW method)
The test was carried out according to the method described in Proc. Soc. Exp. Biol. Med., 95, 729 (1957).

Series [5] relates to adjuvant-induced arthritis. The series can be described thus: Prophylactic effect on adjuvant-induced arthritis in rats. As to conditions: for Arthritic incidence: 80 mg/kg/day p.o., days 0-20, vehicle control 100. Format: in vivo, female rats of JCL:SD strain.
A short description of series [6]: Gastrointestinal ulcerogenicity in fasted rats. The note with it: rat, in vivo, po. The protocol: The test was carried out using fasted rats according to the method described in Arzneim.
A short description of a further series: Anti-allergic activity. As to conditions: result in words, no test described.
A further series in a line: in vivo. The note with it: mouse, po.
Setting [7] is: mice, acetic acid-induced vascular permeability.

What is called ED50 is the dose that gives a 50% effect, or the effect in half of the subjects. Turning to `CC(C(=O)O)c1ccc(N(C)c2ccccn2)cc1` (centres unmarked) [Compound 2, 2-[4-[N-Methyl-N-(2'-pyridyl)amino]phenyl]propionic acid], the ED50 in series [1] is 40 mg/kg; in series [2] (setting [7]), greater than 20 mg/kg; in series [3] it was 20 mg/kg; in series [4], greater than 100 mg/kg.
For the compound `CC(C)Cc1ccc(C(C)C(=O)O)cc1` (centres unmarked) [Compound 1, 2-(4-isobutylphenyl)propionic acid, reference compound], in series [5], the Arthritic incidence came out at 85.7%. In addition, the ED50 amounted to 7.11 mg/kg in series [2], 9.43 mg/kg in series [3] and 50 mg/kg in series [4]. In series [6], the TD50 was found to be 125 mg/kg. In the series “Anti-allergic activity”, the anti-allergic activity entry is on record as “does not show such an activity”.
For the compound `CC(C(=O)O)c1ccc(Oc2ccccn2)cc1` (centres unmarked) [Compound 3, 2-[4-(2'-Pyridyloxy)phenyl]propionic acid], the ED50 turned out to be 20 mg/kg in series [1], 6.74 mg/kg in series [2] (setting [7]), 5.51 mg/kg in series [3] and 80 mg/kg in series [4].
One may read the LD50 as the dose at which mortality reaches 50%. Low readings indicate a more toxic substance, high ones a less toxic substance. Regarding `CC(C(=O)O)c1ccc(Nc2ccccn2)cc1` (centres unmarked) [Compound A, 2-[4-(2'-Pyridylamino)phenyl]propionic acid], the median effective dose (ED50) is 10 mg/kg in series [1], 0.88 mg/kg in series [2] (setting [7]), 1.36 mg/kg in series [3] and 7.33 mg/kg in series [4]. For the same compound, in series [5], the Arthritic incidence amounted to 0%. Further, in series [5] (rat, in vivo), the “Arthritic index mean ± S.E., 22nd day” value is 1.3 ± 0.8. Further, the “Arthritic index mean ± S.E., 28th day” value in series [5] (rat, in vivo) turned out to be 1.3 ± 0.6. In “in vivo”, this compound had an LD50 at 168 h of 1910 mg/kg. The TD50 in series [6] was greater than 640 mg/kg. Also, in series [6] (rats, p.o., UD50 divided by ED50 of CAR method, read-out: Safety index, ratio of UD50/ED50 (CAR method)), the selectivity ratio was greater than 64. Further, the anti-allergic activity result in “Anti-allergic activity” is reported as “shows an anti-allergic activity”.
For the compound `CC(C(=O)O)c1ccc(Nc2ccccn2)c(Cl)c1` (centres unmarked) [B, 2-[3-Chloro-4-(2'-pyridylamino)phenyl]propionic acid], the 50% effective dose (ED50) in series [1] was found to be 13.1 mg/kg; in series [2] (setting [7]), 3.18 mg/kg; in series [3], 1.8 mg/kg; in series [4] it was 8.62 mg/kg.
